According to patent US20250051293A1, “NOVEL OXADIAZOLE DERIVATIVE AND USE THEREOF” (CELROS BIOTECH, priority 2021, published 2025):

How the values were obtained:
human NOX4 = target: T1, human NOX4 (Homo sapiens, UniProt Q9NPH5); experiment: Lucigenin chemiluminescence assay, drosophila membranes expressing hNOX4; type: biochemical; details: average of three repeats
T1 construct: made in house; host or cells: transgenic Drosophila (Da-GAL4 driven UAS-hNOX4, dDuox RNAi background); membranes from homogenized flies
T1 sequence (Q9NPH5 1-578): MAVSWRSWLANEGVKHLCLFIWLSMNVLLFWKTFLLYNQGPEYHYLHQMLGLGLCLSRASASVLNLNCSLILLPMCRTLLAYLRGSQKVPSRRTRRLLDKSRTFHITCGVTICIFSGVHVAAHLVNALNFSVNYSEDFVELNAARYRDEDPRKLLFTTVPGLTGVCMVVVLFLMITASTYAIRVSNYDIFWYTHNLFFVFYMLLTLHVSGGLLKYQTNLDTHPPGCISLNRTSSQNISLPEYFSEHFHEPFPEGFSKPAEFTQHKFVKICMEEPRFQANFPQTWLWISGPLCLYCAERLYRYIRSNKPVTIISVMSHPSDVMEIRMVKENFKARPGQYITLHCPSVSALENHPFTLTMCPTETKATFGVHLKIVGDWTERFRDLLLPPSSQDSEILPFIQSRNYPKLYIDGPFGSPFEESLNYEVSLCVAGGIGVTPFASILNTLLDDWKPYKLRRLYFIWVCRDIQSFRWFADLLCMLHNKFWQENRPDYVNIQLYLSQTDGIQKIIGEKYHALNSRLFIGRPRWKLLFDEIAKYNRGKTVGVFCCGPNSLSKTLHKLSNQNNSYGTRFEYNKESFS
Experimental: (§1) Human NOX isozymes were provided from transgenic flies expressing human NOX isozymes from the daughterless (Da)-GAL4 promoter. The genotype of each fly line is shown below. • human NOX2:UAS-hNOX2/UAS-dDuox-RNAi; Da-GAL4/+ • human NOX4:UAS-hNOX4/UAS-dDuox-RNAi; Da-GAL4/+
(§2) Transgenic flies were homogenized in PBS containing protease inhibitors (aprotinin, leupeptin) to obtain drosophila membranes of each NOX isozyme. The membranes were incubated with the compounds (100 μM, 10 μM, 1 μM, 0.1 μM, 0.01 μM, 0.001 μM, and 0 μM) for 10 minutes in a shaker. Then, to the membranes, a mixture of 500 μM NADPH (R-nicotinamide adenine dinucleotide 2′-phosphate reduced tetrasodium salt hydrate; Sigma-Aldrich) and 400 μM lucigenin (N,N′-dimethyl-9,9-biacridinium dinitrate; Sigma-Aldrich) in 1× HEPES (4-(2-hydroxyethyl)-1-piperazineethanesulfonic acid) buffer was added. Lucigenin chemiluminescence was detected at 1-minute intervals for 10 minutes using a multimode microplate reader (SpectraMax iD3, Molecular Devices). IC50 values were calculated with Graph-Pad Prism 5 (GraphPad Software).
(§3) The lucigenin chemiluminescence assay was performed with drosophila membranes expressing hNOX1, hNOX2, and hNOX4. The assay was repeated three times and the IC50 values were averaged.

U87 = experiment: Mouse model xenografted with brain tumor glioblastoma U87; type: in vivo, mice
Experimental: To confirm the therapeutic effect on brain tumor glioblastoma, U87 (5×10^4), a human brain tumor cell line, was xenografted into the brains of mice to establish a brain tumor model, followed by oral administration of the drugs.
Different experimental groups were evaluated for each compound.
First, with respect to the compound of Example 1, the experimental groups were divided into Vehicle (n=3) and the compound of Example 1, 50 mg/kg (n=3) and the administered with the drug orally 5 times a week 20 days after U87 xenografting.
With respect to the compound of Example 2, the experimental groups were divided into Vehicle (n=9), TMZ 5 mg/kg (Temozolomide, n=10, 2 times per week), the compound of Example 2, 50 mg/kg (n=8, 5 times per week), and combination (TMZ+the compound of Example 2, n=7), and began receiving the drug 20 days after U87 xenografting.

[1] = Metabolic stability in human liver microsomes; type: in vitro ADME; details: human liver microsomes 0.5 mg/ml, 1 μM, 30 minutes, 37° C., NADPH
Experimental: The stability of a drug may be predicted by using liver microsomes to determine the extent to which the drug is metabolized in the liver. […] Thus, a metabolic stability verification experiment was performed on the oxadiazole derivatives according to The present disclosure.
Specifically, sample treatment human liver microsomes (0.5 mg/ml), 0.1 M phosphate buffer (pH 7.4), and test compound at a concentration of 1 μM were added, and the mixture was pre-incubated at 37° C. for 5 minutes, followed by addition of NADPH Regeneration system solution and incubation at 37° C. for 30 minutes. An acetonitrile solution containing an internal standard (chlorpropamide) was then added to terminate the reaction, followed by centrifugation for 5 minutes (14,000 rpm, 4° C.). Then, the supernatant was injected into the LC-MS/MS system to analyze the substrate drug to evaluate the metabolic stability of the two compounds.
The HPLC column was an Acquity UPLC BEH Amide column (2.1×100 mm, 1.7 μm particle size; Waters, Ireland). The mobile phases were distilled water containing 0.1% formic acid (A) and acetonitrile containing 0.1% formic acid (B). Data analysis was performed using Analyst software (version 1.6.3).

human NOX2 = target: T2, human NOX2 (Homo sapiens, UniProt P04839); experiment: Lucigenin chemiluminescence assay, drosophila membranes expressing hNOX2; type: biochemical; details: average of three repeats
T2 construct: made in house; host or cells: transgenic Drosophila (Da-GAL4 driven UAS-hNOX2, dDuox RNAi background); membranes from homogenized flies
T2 sequence (P04839 2-570 limits assumed): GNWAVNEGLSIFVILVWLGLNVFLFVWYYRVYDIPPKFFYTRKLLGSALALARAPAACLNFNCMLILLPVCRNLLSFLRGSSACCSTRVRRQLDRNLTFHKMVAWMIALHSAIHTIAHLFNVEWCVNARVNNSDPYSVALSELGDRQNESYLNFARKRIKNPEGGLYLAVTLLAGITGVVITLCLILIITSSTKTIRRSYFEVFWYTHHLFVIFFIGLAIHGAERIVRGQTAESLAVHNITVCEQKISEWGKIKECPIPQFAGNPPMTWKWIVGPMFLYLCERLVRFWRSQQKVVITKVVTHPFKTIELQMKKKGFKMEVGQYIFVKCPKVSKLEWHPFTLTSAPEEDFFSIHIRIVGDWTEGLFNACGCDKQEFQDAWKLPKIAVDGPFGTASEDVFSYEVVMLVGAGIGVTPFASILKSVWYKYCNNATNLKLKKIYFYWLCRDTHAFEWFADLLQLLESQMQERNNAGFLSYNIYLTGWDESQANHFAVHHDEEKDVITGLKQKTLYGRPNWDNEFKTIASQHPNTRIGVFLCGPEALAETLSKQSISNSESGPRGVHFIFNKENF
Experimental: as §1, §2, §3

[2] = Example 1 study: 50 mg/kg orally 5 times a week

SMILES	IC50 (human NOX4) [µM]	brain tumor growth (MRI) (U87; [2])	extension of median survival compared to the vehicle group (U87; [2]) [days]	median survival (U87; Example 1 study: 50 mg/kg orally 5 times a week from 20 days after U87 xenografting, vehicle 31 days) [days]	Human (% ) remaining, microsomal stability [1] [%]	IC50 (human NOX2) [µM]	tumor growth rate (MRI) (U87; Example 2 study: Example 2 50 mg/kg 5 times per week, TMZ 5 mg/kg 2 times per week)	median survival time (U87; Example 2 study: Example 2 50 mg/kg 5 times per week, TMZ 5 mg/kg 2 times per week, from 20 days after xenografting, vehicle 42 days) [days]
O=C(Nc1nnc(-c2cccc(Cl)c2)o1)c1cc(F)cc(C(F)(F)F)c1 [Example 1, N-(5-(3-chlorophenyl)-1,3,4-oxadiazol-2-yl)-3-fluoro-5-(trifluoromethyl)benzamide]	0.16	inhibition of brain tumor growth	17	48	81.7	0.09	–	–
O=C(Nc1nnc(-c2ccccc2)o1)c1ccc(F)c(C(F)(F)F)c1 [Example 2, 4-fluoro-N-(5-phenyl-1,3,4-oxadiazol-2-yl)-3-(trifluoromethyl)benzamide]	0.44	–	–	–	>100	0.26	inhibited the tumor growth rate	46
